According to patent US20080200532A1 (Teva Pharmaceuticals USA, Inc. for Barbados, priority 2003, published 2008):

Assays:
[1] = Stability studies, appearance after storage; assay type: physicochemical; settings: storage at 40 EC for three months
[2] = Stability study of Form XIV, polymorph content by X-Ray Powder Diffraction analysis; assay type: physicochemical
Source text: [table] Powder X-ray diffraction data were obtained using methods known in the art on a […] powder X-ray diffractometer model X'TRA equipped with a solid state detector. Copper radiation of 1.5418 Å was used. A round aluminum sample holder with zero background was used.

[3] = according to the '340 patent; cited from earlier work

Compound | Change of appearance (white to pale yellow powder) after storage [1] | Polymorph content by X-Ray Powder Diffraction analysis ([2]; 25° C., 60% RH, 1 M) | Polymorph content by X-Ray Powder Diffraction analysis ([2]; 25° C., 60% RH, 2 M) | Polymorph content by X-Ray Powder Diffraction analysis ([2]; 25° C., 60% RH, 3 M) | Polymorph content by X-Ray Powder Diffraction analysis ([2]; 40° C., 75% RH, 1 M) | Polymorph content by X-Ray Powder Diffraction analysis ([2]; 40° C., 75% RH, 2 M) | Polymorph content by X-Ray Powder Diffraction analysis ([2]; 40° C., 75% RH, 3 M) | Polymorph content by X-Ray Powder Diffraction analysis ([2]; 55° C., 1 M) | Polymorph content by X-Ray Powder Diffraction analysis ([2]; 55° C., 2 M) | Polymorph content by X-Ray Powder Diffraction analysis ([2]; 55° C., 3 M) | Transformation into Form B upon storage ([2]; storage at 25, 40 and 55° C., for at least 3 months) | Polymorph content by X-Ray Powder Diffraction analysis ([2]; t = 0) | Hygroscopicity [3]
CC(C)n1c(/C=C/[C@@H](O)C[C@@H](O)CC(=O)O)c(-c2ccc(F)cc2)c2ccccc21 (relative stereo) [Form XIV, [R*,S*-(E)]-(±)-7-[3-(4-fluorophenyl)-1-(1-methylethyl)-1H-indol-2-yl]-3,5-dihydroxy-6-heptenoic acid monosodium] | does not change | XIV | XIV | XIV | XIV | XIV | XIV | XIV | XIV | XIV | no more than 5% | XIV | –
CC(C)n1c(/C=C/[C@@H](O)C[C@@H](O)CC(=O)O)c(-c2ccc(F)cc2)c2ccccc21 (racemic) [Form B, fluvastatin sodium] | – | – | – | – | – | – | – | – | – | – | – | – | low hygroscopicity
